Source: patent publication US9927437B2, “Treating neurodegenerative disease” (THE BRIGHAM AND WOMEN'S HOSPITAL, INC., priority 2013, dated 2018)
Entries after “also recorded” stand apart in the source; their conditions may differ.

What was measured:
astrocytes = assay: Viability assay, astrocytes; format: cell-based, mouse; settings: 1 h pre-treatment at indicated concentrations, LPS/IFNγ, 6 h after activation
Protocol: FIGS. 14a-g. B4GALT6 directly controls astrocyte activation. (a) Cultured astrocytes were pre-treated for 1 h with PDMP (25 μM), LacCer (10 μM), both (LacCer+PDMP), or vehicle control (vehicle), followed by activation with LPS/IFNγ for 6 h, or left un-treated (control, Con). mRNA expression was analyzed 6 h following activation. qPCR analysis of the expression of cc/5, csf2, nos2, il6, H2-Aa, and tlr2 presented relative to gapdh. Statistical analysis by one-way ANOVA, followed by Tukey post-hoc analysis. (b, c) Cultured astrocytes were pre-treated for 1 h with LacCer (b) or PDMP (c), at indicated concentrations, followed by activation with LPS/IFNγ, or left un-treated (control, Con). Cell viability was determined 6 h after activation. […] Astrocytes were then pre-treated for 1 h with PDMP, or vehicle control (vehicle), followed by activation with LPS/IFNγ for 6 h, or left un-treated (control, Con). mRNA expression for H2-Aa, Ccl5 and Cxcl10 was determined; expression is presented as fold induction relative to housekeeping gene (Gapdh). […] (f) NF-κB (P65), GAPDH, and Lamin B expression, in cytoplasmic and nuclear fractions analyzed by western blot. The degree of NF-κB translocation to the nucleus was assessed by the ratio between the expression of P65 in nuclear and cytoplasmic fractions following densitometric quantification on four independent experiments (Right panel). […]

IRF-1 = IRF-1 translocation to the nucleus in astrocytes (western blot); format: cell-based, mouse; settings: primary astrocytes, PDMP 25 μM or LacCer 10 μM, LPS/IFNγ 45 min
primary mouse microglia = assay: Response of primary microglia to LPS/IFNγ (nCounter); format: cell-based; settings: absence of astrocytes, LPS/IFNγ 6 h
From the text: FIGS. 5a-m. B4GALT6 in astrocytes regulates the activation of microglia and CNS-infiltrating monocytes. (a) Heatmap depicting mRNA expression, as determined by nCounter Nanostring analysis, in microglia from naïve or EAE NOD mice treated with PDMP or vehicle. Representative data of three independent experiments. Statistical analysis by Student's t-test. (b) qPCR analysis of ccl5, il1b, opn, nos2, cd40, and H2-Aa gene expression relative to Gapdh. (c, d) Mean normalized expression of genes associated with M1- or M2-phenotype in microglia (Table 3) (c) and Ly6C^high monocytes (d). Statistical analysis by Student's t-test. (e-h) primary microglia were pre-treated with PDMP, LacCer, or vehicle, followed by activation with LPS/IFNγ for 6 h or left un-treated (control) as in (FIG. 3a). mRNA expression was determined by nCounter Nanostring analysis (e, g), and microglial viability was determined (f, h). Representative data of five independent experiments. […] RNA was harvested from microglia treated in the absence [MG (pure)] or presence [MG (mixed)] of astrocytes and gene expression was analyzed by qPCR for the expression ccl2, ccl5 and nos2 relative to gapdh. […] Microglia were isolated as in (i), and microglial-nos2 expression was determined by qRT relative to gapdh and presented as in (i). […]

Compound	astrocyte viability (astrocytes)	translocation of IRF-1 to the nucleus (IRF-1)	response of cultured primary mouse microglia to LPS/IFNγ (primary mouse microglia)
CCCCCCCCCC(=O)N[C@H](CN1CCOCC1)[C@H](O)c1ccccc1 [PDMP, D-threo-1-phenyl-2-decanoylamino-3-morpholino-1-propanol]	did not affect astrocyte viability; also recorded: no significant cells death	interfered with this process	neither the viability nor the response of cultured primary mouse microglia to LPS/IFNγ was affected
lactosylceramide [LacCer]	did not affect astrocyte viability; also recorded: no significant cells death	enhanced the translocation of IRF-1 to the nucleus	neither the viability nor the response of cultured primary mouse microglia to LPS/IFNγ was affected
